Source: the NIST ThermoML archive (doi:10.1021/je100237h)

Conditions: 101.33 kPa, Liquid, Concentric cylinders viscometry

CCOC(=O)CCCCC(=O)OCC [diethyl hexanedioate]
Conditions | viscosity [mPa·s]
283.15 K | 4.57
288.15 K | 3.99
293.15 K | 3.51
298.15 K | 3.12
303.15 K | 2.79
308.15 K | 2.51
313.15 K | 2.28
318.15 K | 2.07
323.15 K | 1.9
328.15 K | 1.75
333.15 K | 1.61
338.15 K | 1.49
343.15 K | 1.39
348.15 K | 1.29
353.15 K | 1.21
358.15 K | 1.13
363.15 K | 1.06
368.15 K | 1
373.15 K | 0.94
